In PMC9555310, “Novel inhibitors and activity-based probes targeting serine proteases” (Frontiers in Chemistry, 2022):
Several values for one entry are separate records, joined by “and”; a condition that tells them apart may be missing. Equal entries are not always repeated. Where two headings read alike, the source gives them in different places.

Key:
plasmin [1] = molecular target: T1, plasmin (Homo sapiens, UniProt P00747); parameters: method as in Martin and Walker (2017); conditions: mean ± SD (n=2), ref Martin and Walker (2017); cited from earlier work
T1 construct: purchased Sigma-Aldrich (supplement); R&D Systems; host or cells: human plasma

plasmin [2] = molecular target: T1, plasmin; experiment: Activity-based profiling of plasmin (SDS-PAGE, streptavidin-HRP western blot); assay type: binding; conditions: 50 μM, 30 min, 37°C
Protocol: (§1) Samples of recombinant protease (trypsin, plasmin, thrombin, chymotrypsin, or HNE, as indicated in the relevant figure legends) were treated with each of the newly synthesized compounds at a concentration of 50 μM, for 30 min, at 37°C. A control sample (no ABP) was prepared by treating the recombinant protease with solvent vehicle (DMF) only, used to prepare the stock solution of each ABP. Samples were also pre-treated (±90°C for 30 min) before being incubated with each putative ABP. With trypsin and thrombin, further samples were prepared where Z-Arg^P-(OPh)2 or NAP559, respectively, was added 30 min prior to the addition of the ABP under examination. All treated samples were then denatured with SDS containing reducing treatment buffer (10 min at 95°C), followed by resolution by SDS-PAGE and subjected to Western blotting. Resolved proteins were then transferred onto the nitrocellulose membrane and labeled with streptavidin-HRP. The ABP–protease complex was then visualized following treatment with Luminata Forte HRP substrate.
(§2) FIGURE 8 Activity Based Profiling of Trypsin-like serine proteases. (A) trypsin was treated (±) with NAP830, for 30 min, at 37°C (± pretreatment with Z-Arg^P-(OPh)2). (B) thrombin (1 […]) was pre-treated with various concentrations of NAP559 (30 min, at 37°C) followed by treatment (±) with NAP858 for 30 min, at 37°C. (C) Plasmin was treated in turn with QUBTL1, NAP962 and NAP830, (± pre-heat inactivation at 95°C, for 10 min) for 30 min, at 37°C. […]
(§3) Following transfer, the extra protein binding sites on the membrane were blocked by addition of 3% (w/v) BSA in TBST (20 mM Tris, 137 mM NaCl, 1% (v/v) Tween 20, pH 7.6) and agitated gently at room temperature for 30 minutes. The biotin-labelled proteases were then detected by addition of Streptavidin-HRP (Vector Laboratories) in 3% (w/v) BSA in TBST at a concentration of 1:20000, for 1 hour at room temperature. […]

cathepsin B (CTSB) = molecular target: T2, cathepsin B (CTSB) (Homo sapiens, UniProt P07858); experiment: Off-target study, residual activity after 2 min pre-incubation: cathepsin B; assay type: biochemical; conditions: 25 and 50 μM, 0.1 M MES pH 6.1, 1 mM EDTA, 37°C
T2 construct: purchased R and D Systems
Protocol: (§4) FIGURE 5 Results of “off-target“ studies. NAP849 (A), NAP800 (B) and NAP830 (C) were tested against trypsin, chymotrypsin, and NE. Samples (approx. 0.01 μg) of each protease were incubated with the indicated concentrations of test compound for 2 min, in PBS, pH 7.4, at 37°C. (D) NAP858, NAP962 and NAP849 were tested against cathepsin B at the indicated concentrations in 0.1 M MES, pH 6.1, containing 1 mM EDTA, for 2 min, at 37°C. Aliquots (approx. 10 μL) of each incubation sample were then added to a fresh sample (990 μL) of PBS for the serine proteases and MES for cathepsin B, containing the appropriate substrate for each protease, to measure their residual activity. Controls incubations were performed in the absence of test compound, but in the presence of an appropriate volume of DMF vehicle used to prepare stock solutions of each inhibitor under study.
(§5) Two elements were investigated regarding possible “off-target” effects–determining the extent of cross-reactivity of each of the new putative ABPs between the various serine protease family members and assessing their collateral inhibitory action against another mechanistic class–the cysteine proteases, using cathepsin B (CTSB) as an exemplar.
(§6) For assays requiring a pre-incubation step enzyme and inhibitor in assay buffer were incubated together, at 37 °C, for 2 min, with gentle agitation. The reaction mixture was then aliquoted (50 μL) in duplicate on a black 96-well microtitre plate followed by addition of substrate to make a final concentration of 50 μM in a total volume of 100 μL. The fluorescence production was then measured as described for the previous procedure.
Assays with Cathepsin B required a pre-activation step of the protease prior to use in the fluorogenic enzyme assays. Cathepsin B was diluted to 10 μg/ml in activation buffer (0.1 M MES, pH 6.1, containing 1 mM EDTA and 2 mM DTT) and left to stand at room temperature for 15 minutes. Activated Cathepsin B was then diluted (1:50 to give 10 ng/50 μl) with assay buffer (activation buffer minus the DTT) prior to use as described previously.

thrombin = molecular target: T3, thrombin (Homo sapiens, UniProt P00734); experiment: Activity-based profiling of thrombin (SDS-PAGE, streptavidin-HRP western blot); assay type: binding; conditions: 30 min, 37°C; heavy (catalytic) chain; recapitulated in Figure 8B
T3 construct: apparent molecular mass of 31 kDa, corresponding to the heavy (catalytic) chain of the protease; purchased R&D Systems
Protocol: as §1, §2, §3

trypsin = molecular target: T4, trypsin (Sus scrofa, UniProt P00761); conditions: cited from earlier work
T4 construct: purchased Sigma-Aldrich; host or cells: porcine pancreas

chymotrypsin [3] = molecular target: T5, chymotrypsin (Bos taurus, UniProt P00766); parameters: method as in Gilmore et al. (2009); conditions: ref Gilmore et al. (2009); cited from earlier work
T5 construct: purchased Sigma-Aldrich (supplement); Calbiochem; host or cells: bovine pancreas

neutrophil elastase (NE) = molecular target: T6, neutrophil elastase (NE) (Homo sapiens, UniProt P08246); experiment: Off-target study, residual activity after 2 min pre-incubation: NE; assay type: biochemical; conditions: highest concentration (50 μM); 2 min incubation, PBS pH 7.4, 37°C
T6 construct: purchased Calbiochem
T6 sequence (P08246 30-267): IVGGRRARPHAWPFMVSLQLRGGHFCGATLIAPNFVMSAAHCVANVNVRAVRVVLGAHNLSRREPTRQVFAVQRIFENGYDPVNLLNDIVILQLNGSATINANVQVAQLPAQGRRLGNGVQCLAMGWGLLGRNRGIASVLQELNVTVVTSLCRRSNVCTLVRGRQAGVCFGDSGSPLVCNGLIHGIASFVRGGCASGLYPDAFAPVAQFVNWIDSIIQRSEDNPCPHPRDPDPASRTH
Protocol: as §4, §5, §6
(§7) Figure ST1. Results of “off-target” studies. NAP559 and NAP533 were tested against chymotrypsin, and NE. Samples (approx. 0.01 mg) of each protease were incubated with the indicated concentrations of test compound for 2 min, in PBS, pH 7.4, at 37 °C. Aliquots (approx. 10 µL) of each incubation sample were then added to a fresh sample (990 µL) of PBS containing the appropriate substrate for each protease, to measure their residual activity. Controls incubations were performed in the absence of test compound, but in the presence of an appropriate volume of DMF vehicle used to prepare stock solutions of each inhibitor under study.

chymotrypsin [4] = molecular target: T5, chymotrypsin; experiment: Off-target study, residual activity after 2 min pre-incubation: chymotrypsin; assay type: biochemical, bovine; conditions: highest concentration (50 μM); 2 min incubation, PBS pH 7.4, 37°C
Protocol: as §4, §5, §6, §7

plasmin [5] = molecular target: T1, plasmin; experiment: Irreversible inhibition kinetics of plasmin (fluorogenic substrate progress curves); assay type: biochemical; conditions: PBS pH 7.4, 37°C, mean ± SD (n=2)
Protocol: A range of inhibitor concentrations were prepared from a 10 mM stock solution of the test compounds (NAP533, NAP559, NAP800, NAP830, NAP849, and NAP962) in N, N-dimethylformamide (DMF). Recombinant protease activities were assayed using the cognate fluorogenic substrates as follows: trypsin (Z-Gly-Gly-Arg-NHMec), thrombin (Boc-Val-Pro-Arg-NHMec), plasmin (Boc-Val-Leu-Lys-NHMec), human neutrophil elastase (MeO-Succinyl-Ala-Ala-Pro-Val-NHMec), and chymotrypsin (Succinyl-Ala-Ala-Pro-Phe-NHMec). Each substrate was used at a final concentration of 50 μM, in the appropriate buffer for each protease. All inhibition assays were performed in microtiter plates maintained at 37°C in a final volume of 100 μL. The reaction was initiated by the addition of each protease (approx. 0.01 μg/well) and the rate of substrate hydrolysis was recorded continuously at 37°C, over a 60 min period, by measuring the rate of increase in fluorescence (at λex 360 nm, λem 480 nm) using a FLUOstar Optima microplate reader (BMG Labtech).
The resultant inhibition progress curves obtained for each inhibitor were analyzed by the kinetic models developed by [Tian and Tsou (1982)] and [Walker and Elmore (1984)], for irreversible inhibitors, with curve fitting being achieved using GraFit (Erithacus Software), as described previously ([Ferguson et al., 2016]).
FIGURE 4 Progress curves for (A), chymotrypsin-catalysed hydrolysis of Succinyl-Ala-Ala-Pro-Phe-NHMec, in the presence of varying concentrations of NAP849. (B), NE-catalysed hydrolysis of MeO-succinyl-Ala-Ala-Pro-Val-NHMec, in the presence of varying concentrations of NAP800. (C) Trypsin-catalysed of Z-Gly-Gly-Arg-NHMec, in the presence of NAP830. (D) Plasmin-catalysed hydrolysis of Boc-Val-Leu-Lys-NHMec, in the presence of varying concentrations of NAP962. Assays were carried out in PBS, pH 7.4, at 37°C, in the presence of a range of inhibitor concentrations (0.25–50 μM) and a fixed concentration (50 μM) of the appropriate substrate for each protease.
The “product progress” curves for substrate hydrolysis in the presence of an inhibitor (Figure 4) are indicative of the action of irreversible inhibitors operating through the kinetic scheme illustrated in Figure 6. In this scheme, the formation of the reversible enzyme–inhibitor complex (EI) is zcharacterized by the inhibitor constant K i. This is converted into the covalent/irreversible complex (E-I) characterized by a first-order rate constant k 3. The overall second-order rate constant for the inactivation of E by I is given by the ratio k 3/K i ([Walker and Elmore, 1984]; [Tsou, 1988]).
Fluorogenic enzyme assays were carried out on a FLUOstar OPTIMA spectro-fluorimeter (BMG Labtech) with analysis performed on MARS Data Analysis Software (BMG Labtech). Black 96-well microtitre plates were supplied by Thermo Scientific. Trypsin from porcine pancreas, plasmin from human plasma and chymotrypsin from bovine pancreas were obtained from Sigma-Aldrich. Thrombin and Cathepsin B were supplied by R and D Systems. Human Neutrophil Elastase was supplied by Calbiochem. Fluorogenic substrates Z-Gly-Gly-Arg-NHMec, Succinyl-Ala-Ala-Pro-Phe-NHMec and MeO-Succinyl-Ala-Ala-Pro-Val-NHMec were supplied by Sigma-Aldrich. Boc-Val-Pro-Arg-NHMec was obtained from R and D Systems and Boc-Val-Leu-Lys-NHMec was supplied by PeptaNova. Phosphate Buffered Saline tablets were acquired from Sigma- Aldrich.
Protease inactivation by each of the compounds under study was evaluated using a fluorogenic enzyme assays. Protease-substrate combinations used as detailed in Section 2. Inhibitors were made up as 10 mM stock solutions in either DMF or DMSO, then diluted with PBS (pH 7.4) to give appropriate working concentrations. A final volume of 100 μL was used per well. Substrate (50 μM final concentration) was added to a black 96-well microtitre plate (Thermo Scientific), in duplicate, followed by addition of inhibitor, in such a manner to give the required final concentration. […]

T1 sequence (P00747 581-810 limits assumed): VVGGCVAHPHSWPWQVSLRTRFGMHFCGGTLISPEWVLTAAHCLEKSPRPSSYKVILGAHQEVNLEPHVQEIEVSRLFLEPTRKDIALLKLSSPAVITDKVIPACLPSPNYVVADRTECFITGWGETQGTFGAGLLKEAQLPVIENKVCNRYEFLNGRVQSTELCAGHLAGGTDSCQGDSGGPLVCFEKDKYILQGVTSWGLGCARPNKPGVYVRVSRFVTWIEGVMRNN
T1 sequence (P00747 97-580 partner limits assumed): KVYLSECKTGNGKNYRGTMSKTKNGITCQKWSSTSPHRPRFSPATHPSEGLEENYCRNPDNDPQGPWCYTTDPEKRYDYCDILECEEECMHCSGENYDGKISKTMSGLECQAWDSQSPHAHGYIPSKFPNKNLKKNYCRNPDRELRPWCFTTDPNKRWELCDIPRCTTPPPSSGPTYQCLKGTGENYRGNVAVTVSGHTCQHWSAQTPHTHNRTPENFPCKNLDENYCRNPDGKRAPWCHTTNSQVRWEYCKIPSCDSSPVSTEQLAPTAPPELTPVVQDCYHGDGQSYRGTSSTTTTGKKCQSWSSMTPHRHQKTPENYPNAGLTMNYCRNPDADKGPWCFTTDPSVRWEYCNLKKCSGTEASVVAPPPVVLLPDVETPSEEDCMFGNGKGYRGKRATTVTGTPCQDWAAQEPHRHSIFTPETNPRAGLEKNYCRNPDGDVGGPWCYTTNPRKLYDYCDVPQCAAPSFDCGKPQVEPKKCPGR
T4 sequence (P00761 9-231): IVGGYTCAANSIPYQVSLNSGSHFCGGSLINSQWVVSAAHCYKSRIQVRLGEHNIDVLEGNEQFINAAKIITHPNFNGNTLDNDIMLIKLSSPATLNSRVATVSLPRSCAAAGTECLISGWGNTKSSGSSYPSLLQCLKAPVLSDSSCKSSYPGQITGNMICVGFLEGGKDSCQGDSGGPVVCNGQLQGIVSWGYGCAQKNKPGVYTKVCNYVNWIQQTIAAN

In the case of `N=C(N)NCCCC(NC(=O)CCC(=O)NCCCOCCOCCOCCCNC(=O)CCCCC1SCC2NC(=O)NC21)P(=O)(Oc1ccccc1)Oc1ccccc1` (centres unmarked) [QUBTL1, biotin-PEG-succinyl-arginine diphenyl phosphonate], the Ki (plasmin [1]) is listed as 89 nM, the “k 3” value (plasmin [1]) is listed as 0.3 (± 0.05) min^−1 and the “k 3 / K i” value (plasmin [1]) is listed as 3.1 (± 0.2) × 10^6 M^−1 min^−1. The “labelling of plasmin by ABP (western blot)” value (plasmin [2]) was “failed to detect any plasmin band”.
For `N=C(N)NCCCN(CC(=O)NCC(=O)NCC(=O)NCCCOCCOCCOCCCNC(=O)CCCCC1SCC2NC(=O)NC21)C(=O)ON1C(=O)CCC1=O` (centres unmarked) [NAP858], the “inhibitory activity against CTSB” value (cathepsin B (CTSB)) is listed as “none of the three carbamates tested exhibited any inhibitory activity against CTSB”, the “labelling of thrombin by ABP (western blot)” value (thrombin) is listed as “detection of a band with an apparent molecular mass of 31 kDa” and the “k 3” value (trypsin; ref Ferguson et al. (2022)) is listed as 0.5 (+ 0.1) min^−1. The “k 3 / K i” value (trypsin; ref Ferguson et al. (2022)) was 34300 M⁻¹ s⁻¹ and 35000 M⁻¹ s⁻¹.
For `O=C(CCCCC1SCC2NC(=O)NC21)NCCCOCCOCCOCCCNC(=O)CCC(=O)NC(Cc1ccccc1)P(=O)(Oc1ccccc1)Oc1ccccc1` (centres unmarked) [QUBCL1, biotin-PEG-succinyl-Phe^P-(OPh)2], the Ki (chymotrypsin [3]) is listed as 1080 nM, the “k 3” value (chymotrypsin [3]) is listed as 0.119 min⁻¹ and the “k 3 / K i” value (chymotrypsin [3]) is listed as 1850 M⁻¹ s⁻¹.
For `CC(C)[C@H](NC(=O)CN(Cc1ccccc1)C(=O)CN(CCCCN)C(=O)ON1C(=O)CCC1=O)C(N)=O` [NAP533, Succinimidoyl-CO-NLys-NPhe-Val-NH2], the “inhibition of NE” value (neutrophil elastase (NE)) was < 5 % of control, the inhibition of chymotrypsin (chymotrypsin [4]) was < 5 % of control and the Ki (plasmin [5]; Boc-Val-Leu-Lys-NHMec 50 μM) was 2200 nM. The “k 3” value (plasmin [5]; first-order rate constant) was 0.4 (± 0.04) min^−1 and the “k 3 / K i” value (plasmin [5]; second-order rate constant of inactivation) was 1.7 (± 0.3) × 10^5 M^−1 min^−1.
In the case of “Biotin-PEG-Succinyl-Lys^P-(OPh)2 [QUBTL2]”, the “k 3 / K i” value (trypsin; ref Martin and Walker (2017)) is listed as 18300 M⁻¹ s⁻¹.
